From patent US20010020100A1, “N-substituted-1, 2, 4-triazolone compounds for treatment of cardiovascular disorders” (G.D. Searle & Co., priority 1994, published 2001)
Where “and” joins values, the source holds several entries; their conditions need not be identical. Identical values can stand only once.

Legend:
[1] = target: smooth muscle angiotensin II receptor; test: Assay A: Angiotensin II Binding Activity (125I-AII displacement, rat uterine membrane preparation); details: 50% displacement of specifically bound 125I-AII, rat uterine membranes, 25° C., 60 min
Procedure: Compounds of the invention were tested for ability to bind to the smooth muscle angiotensin II receptor using a rat uterine membrane preparation. […] Rat uterine membranes were prepared from fresh tissue. All procedures were carried out at 4° C. Uteri were stripped of fat and homogenized in phosphate-buffered saline at pH 7.4 containing 5 mM EDTA. The homogenate was centrifuged at 1500×g for 20 min., and the supernatant was recentrifuged at 100,000×g for 60 min. The pellet was resuspended in buffer consisting of 2 mM EDTA and 50 mM Tris-HCl (pH 7.5) to a final protein concentration of 4 mg/ml. […] The reaction was initiated by the addition of membrane protein and the mixture was incubated at 25° C. for 60 min. The incubation was terminated with ice-cold 50 mM Tris-HCl (pH 7.5) and the mixture was filtered to separate membrane-bound labelled peptide from the free ligand. The incubation tube and filter were washed with ice-cold buffer. Filters were assayed for radioactivity in a Micromedic gamma counter. Nonspecific binding was defined as binding in the presence of 10 μM of unlabelled AII. Specific binding was calculated as total binding minus nonspecific binding. […] Binding data were analyzed by a nonlinear least-squares curve fitting program.

[2] = test system: AII pressor response; test: Assay C: In Vivo Intraduodenal Pressor Assay Response for AII Antagonists; design: species or system Sprague-Dawley rats; details: 30 mg/kg i.d., average of two rats; for Assay C Inhibition: inhibition of AII pressor response, anesthetized ganglion-blocked rats; for Assay C Duration: time from peak percent inhibition to 50% of peak
Procedure: Assay C: In Vivo Intraduodenal Pressor Assay Response for AII Antagonists
Male Sprague-Dawley rats weighing 225-300 grams were anesthetized with Inactin (100 mg/kg, i.p.) and catheters were implanted into the trachea, femoral artery, femoral vein and duodenum. Arterial pressure was recorded from the femoral artery catheter on a Gould chart recorder (Gould, Cleveland, OH). The femoral vein catheter was used for injections of angiotensin II, mecamylamine and atropine. The tracheal catheter allows for airway patency, and the duodenal catheter was used for intraduodenal (i.d.) administration of test compounds. After surgery, the rats were allowed to equilibrate for 30 minutes. Mecamylamine (3 mg/kg, 0.3 ml/kg) and atropine (400 ug/kg, 0.3 ml/kg) were then given i.v. to produce ganglion blockade. These compounds were administered every 90 minutes throughout the test procedure. Angiotensin II was given in bolus does i.v. (30 ng/kg in saline with 0.5% bovine serum albumin, 0.1 ml/kg) every 10 minutes three times or until the increase in arterial pressure produced was within 3 mmHg for two consecutive AII injections. The last two AII injections were averaged and were taken as the control AII pressor response. Ten minutes after the final control AII injection, the test compound (dissolved in sodium bicarbonate) was administered i.d. at a dose of 30 mg/kg in a volume of 0.2 ml. Angiotensin II injections were then given 5, 10, 20, 30, 45, 60, 75, 90, and 120 minutes after administration of the test compound and response of arterial pressure was monitored. The response to AII was calculated as percent of the control response and then the percent inhibition is calculated as 100 minus the percent control response. Duration of action of a test compound was defined as the time from peak percent inhibition to 50% of peak. One compound at one dose was tested in each rat. Each test compound was tested in two rats and the values for the two rats were averaged.

[3] = test system: rabbit aortic rings; test: Assay B: In Vitro Vascular Smooth Muscle Response for AII (antagonist activity in aortic rings); type: cell-based; details: antagonist at 10^-5 M, AII concentration-response curves, Schild calculation; aorta rings from two rabbits, two values per cell
Procedure: Assay B: In Vitro Vascular Smooth Muscle-Resionse for AII
The compounds of the invention were tested for antagonist activity in rabbit aortic rings. Male New Zealand white rabbits (2-2.5 kg) were sacrificed using an overdose of pentobarbital and exsanguinated via the carotid arteries. The thoracic aorta was removed, cleaned of adherent fat and connective tissue and then cut into 3-mm ring segments. The endothelium was removed from the rings by gently sliding a rolled-up piece of filter paper into the vessel lumen. The rings were then mounted in a water-jacketed tissue bath, maintained at 37° C., between moveable and fixed ends of a stainless steel wire with the moveable end attached to an FT03 Grass transducer coupled to a Model 7D Grass Polygraph for recording isometric force responses. The bath was filled with 20 ml of oxygenated (95% oxygen/5% carbon dioxide) Krebs solution of the following composition (nM) : 130 NaCl, 15 NaHCO3, 15 KCl, 1.2 NaH2PO4, 1.2 MgSO4, 2.5 CaCl2, and 11.4 glucose. […] Angiotensin II concentration-response curves were then recorded (3×10^−10 to 1×10^−5 M). […] The effectiveness of the test compound was expressed in terms of pA2 values and were calculated according to H. O. Schild [Br. J. Pharmacol. Chemother., 2,189-206 (1947)]. […] Each test antagonist was evaluated in aorta rings from two rabbits.

| SMILES | IC50 [1] | Assay C Inhibition [2] | Assay C Duration [2] | Assay B PA2 [3] |
| --- | --- | --- | --- | --- |
| CCCCc1nn(CCCC)c(=O)n1Cc1ccc(-c2ccccc2-c2nnn[nH]2)cc1 [Example 2, 2,5-dibutyl-2,4-dihydro-4-[[2-(1H-tetrazol-5-yl)[1,1′-biphenyl]-4′-yl]methyl]-3H-1,2.4-triazol-3-one] | 4.9 nM | 100% | >200 min | 9.0 and 9.4 |
| CCCCc1nn(CCCC)c(=O)n1Cc1ccc(-c2ccccc2C(=O)O)cc1 [Example 1, 4′-[(1,3-dibutyl-4,5-dihydro-5-oxo-1H-1,2,4-triazol-4-yl)methyl] [1,1′-biphenyl]-2-carboxylic acid] | 101 nM | 93% | 60 to 100 min | 7.3 and 6.7 |
